Patent US20250263753A1, “BRIDGED CYCLE-BASED INHIBITORS OF DNA-DEPENDENT PROTEIN KINASE AND COMPOSITIONS AND APPLICATION IN GENE EDITING” (Juno Therapeutics, Inc., priority 2023, published 2025)
Like-named read-outs stand apart in the source and are kept apart here.

Legend:
DNA-PK = DNA-PK (Homo sapiens (Human), UniProt P78527); assay: DNA-PK biochemical assay (Reaction Biology HotSpot kinase assay, 10 μM ATP)
Procedure: DNA-PK Biochemical Assay Using Reaction Biology's HotSpot Kinase Assay Protocol:
Reagent: Base Reaction buffer; 20 mM Hepes (pH 7.5), 10 mM MgCl2, 1 mM EGTA, 0.01% Brij35, 0.02 mg/ml BSA, 0.1 mM Na3VO4, 2 mM DTT, 1% DMSO Required cofactors are added individually to each kinase reaction.
Reaction Procedure: 1. Prepare substrate in freshly prepared Reaction Buffer; 2. Deliver any required cofactors to the substrate solution above; 3. Deliver kinase into the substrate solution and gently mix; 4. Deliver compounds in 100% DMSO into the kinase reaction mixture by Acoustic technology (Echo550; nanoliter range), incubate for 20 min at room temperature; 5. Deliver 33P-ATP into the reaction mixture to initiate the reaction; 6. Incubate for 2 hours at room temperature; 7. Detect kinase activity by P81 filter-binding method.

ATM = ATM (Homo sapiens (Human), UniProt Q13315); assay: ATM biochemical assay (Reaction Biology HTRF kinase assay, 10 μM ATP)
Procedure: Ataxia-Telangiectasia Mutated (ATM) Biochemical Assay Using Reaction Biology's HTRF Kinase Assay Protocol:
The assay detects kinase activity by antibody based HTRF assay. The GST-tagged p53 protein serves as substrate and Eu-labeled-antibody with specific phosphorylation site binds upon phosphorylation which is monitored by HTRF from the anti-GST-d2.
Reagent: Reaction buffer; 50 mM Hepes (pH 7.5), 150 mM NaCl, 10 mM MnCl2, 1% Glycerol, 0.01% Brij35, 1 mM DTT, 1% DMSO.
Substrate: Human p53 (aa2-393), RBC produced in E. coli, N-terminal GST-Tag, MW=70.42 kDa.
Detection; MAb Anti-p53-pS15-Eu cryptate, CisBio cat #61P08KAZ; MAb Anti GST-d2
Reaction Procedure: 1. Deliver 2× Enzyme in wells of reaction plate except No E control wells. Add buffer instead; 2. Deliver compounds in 100% DMSO into the kinase reaction mixture by Acoustic technology (Echo550; nanoliter range), incubate for 30 min at room temperature; 3. Deliver 2× substrate+ATP mixture into the reaction mixture to initiate the reaction; 4. Incubate for 2 hours at room temperature.
HTRF Detection: 1. Deliver 2× Stop/Detection mixture and incubate for 2 hours to overnight in the dark. 2. HTRF measurement (Ex/Em1/Em2=320/615/665 nm) in EnVision.

[1] = target: PI3Kδ (His-PIK3CD/PIK3R1, p110 delta/p85 alpha) (Homo sapiens (Human), UniProt O00329); assay: PI3Kδ biochemical assay (HTRF/FRET probe); type: binding; conditions: class symbol
Procedure: Phosphoinositide 3-kinase (PI3K) Biochemical Assay: A solution was prepared containing 0.2 nM Anti-HIS-Terbium (Cisbio, 64CUSTAZU), 40 nM designed-probe and 1.0 nM His-PIK3CD/PIK3R1 (p110 delta/p85 alpha) in FRET Buffer (20 mM HEPES, 10 mM MgCl2, 0.015% Brij-35, 4 mM DTT, 0.05 mg/mL BSA).

[2] = target: PI3Kα (His-PIK3CA/PIK3R1, p110 alpha/p85 alpha) (Homo sapiens (Human), UniProt P42336); assay: PI3Kα biochemical assay (HTRF/FRET probe); type: binding; conditions: class symbol
Procedure: Phosphoinositide 3-kinase α (PI3Kα) Biochemical Assay: A solution was prepared containing 0.2 nM Anti-HIS-Terbium (Cisbio, 64CUSTAZU), 3.7 nM designed-probe and 1.0 nM His-PIK3CA/PIK3R1 (p110 alpha/p85 alpha) in FRET Buffer (20 mM HEPES, 10 mM MgCl2, 0.015% Brij-35, 4 mM DTT, 0.05 mg/mL BSA).

[3] = read-out: DNA-PK HotSpot 10 μM ATP IC50, class symbol
[4] = read-out: ATM HTRF 10 μM ATP IC50, class symbol

Sequence of ATM (Q13315 whole entry): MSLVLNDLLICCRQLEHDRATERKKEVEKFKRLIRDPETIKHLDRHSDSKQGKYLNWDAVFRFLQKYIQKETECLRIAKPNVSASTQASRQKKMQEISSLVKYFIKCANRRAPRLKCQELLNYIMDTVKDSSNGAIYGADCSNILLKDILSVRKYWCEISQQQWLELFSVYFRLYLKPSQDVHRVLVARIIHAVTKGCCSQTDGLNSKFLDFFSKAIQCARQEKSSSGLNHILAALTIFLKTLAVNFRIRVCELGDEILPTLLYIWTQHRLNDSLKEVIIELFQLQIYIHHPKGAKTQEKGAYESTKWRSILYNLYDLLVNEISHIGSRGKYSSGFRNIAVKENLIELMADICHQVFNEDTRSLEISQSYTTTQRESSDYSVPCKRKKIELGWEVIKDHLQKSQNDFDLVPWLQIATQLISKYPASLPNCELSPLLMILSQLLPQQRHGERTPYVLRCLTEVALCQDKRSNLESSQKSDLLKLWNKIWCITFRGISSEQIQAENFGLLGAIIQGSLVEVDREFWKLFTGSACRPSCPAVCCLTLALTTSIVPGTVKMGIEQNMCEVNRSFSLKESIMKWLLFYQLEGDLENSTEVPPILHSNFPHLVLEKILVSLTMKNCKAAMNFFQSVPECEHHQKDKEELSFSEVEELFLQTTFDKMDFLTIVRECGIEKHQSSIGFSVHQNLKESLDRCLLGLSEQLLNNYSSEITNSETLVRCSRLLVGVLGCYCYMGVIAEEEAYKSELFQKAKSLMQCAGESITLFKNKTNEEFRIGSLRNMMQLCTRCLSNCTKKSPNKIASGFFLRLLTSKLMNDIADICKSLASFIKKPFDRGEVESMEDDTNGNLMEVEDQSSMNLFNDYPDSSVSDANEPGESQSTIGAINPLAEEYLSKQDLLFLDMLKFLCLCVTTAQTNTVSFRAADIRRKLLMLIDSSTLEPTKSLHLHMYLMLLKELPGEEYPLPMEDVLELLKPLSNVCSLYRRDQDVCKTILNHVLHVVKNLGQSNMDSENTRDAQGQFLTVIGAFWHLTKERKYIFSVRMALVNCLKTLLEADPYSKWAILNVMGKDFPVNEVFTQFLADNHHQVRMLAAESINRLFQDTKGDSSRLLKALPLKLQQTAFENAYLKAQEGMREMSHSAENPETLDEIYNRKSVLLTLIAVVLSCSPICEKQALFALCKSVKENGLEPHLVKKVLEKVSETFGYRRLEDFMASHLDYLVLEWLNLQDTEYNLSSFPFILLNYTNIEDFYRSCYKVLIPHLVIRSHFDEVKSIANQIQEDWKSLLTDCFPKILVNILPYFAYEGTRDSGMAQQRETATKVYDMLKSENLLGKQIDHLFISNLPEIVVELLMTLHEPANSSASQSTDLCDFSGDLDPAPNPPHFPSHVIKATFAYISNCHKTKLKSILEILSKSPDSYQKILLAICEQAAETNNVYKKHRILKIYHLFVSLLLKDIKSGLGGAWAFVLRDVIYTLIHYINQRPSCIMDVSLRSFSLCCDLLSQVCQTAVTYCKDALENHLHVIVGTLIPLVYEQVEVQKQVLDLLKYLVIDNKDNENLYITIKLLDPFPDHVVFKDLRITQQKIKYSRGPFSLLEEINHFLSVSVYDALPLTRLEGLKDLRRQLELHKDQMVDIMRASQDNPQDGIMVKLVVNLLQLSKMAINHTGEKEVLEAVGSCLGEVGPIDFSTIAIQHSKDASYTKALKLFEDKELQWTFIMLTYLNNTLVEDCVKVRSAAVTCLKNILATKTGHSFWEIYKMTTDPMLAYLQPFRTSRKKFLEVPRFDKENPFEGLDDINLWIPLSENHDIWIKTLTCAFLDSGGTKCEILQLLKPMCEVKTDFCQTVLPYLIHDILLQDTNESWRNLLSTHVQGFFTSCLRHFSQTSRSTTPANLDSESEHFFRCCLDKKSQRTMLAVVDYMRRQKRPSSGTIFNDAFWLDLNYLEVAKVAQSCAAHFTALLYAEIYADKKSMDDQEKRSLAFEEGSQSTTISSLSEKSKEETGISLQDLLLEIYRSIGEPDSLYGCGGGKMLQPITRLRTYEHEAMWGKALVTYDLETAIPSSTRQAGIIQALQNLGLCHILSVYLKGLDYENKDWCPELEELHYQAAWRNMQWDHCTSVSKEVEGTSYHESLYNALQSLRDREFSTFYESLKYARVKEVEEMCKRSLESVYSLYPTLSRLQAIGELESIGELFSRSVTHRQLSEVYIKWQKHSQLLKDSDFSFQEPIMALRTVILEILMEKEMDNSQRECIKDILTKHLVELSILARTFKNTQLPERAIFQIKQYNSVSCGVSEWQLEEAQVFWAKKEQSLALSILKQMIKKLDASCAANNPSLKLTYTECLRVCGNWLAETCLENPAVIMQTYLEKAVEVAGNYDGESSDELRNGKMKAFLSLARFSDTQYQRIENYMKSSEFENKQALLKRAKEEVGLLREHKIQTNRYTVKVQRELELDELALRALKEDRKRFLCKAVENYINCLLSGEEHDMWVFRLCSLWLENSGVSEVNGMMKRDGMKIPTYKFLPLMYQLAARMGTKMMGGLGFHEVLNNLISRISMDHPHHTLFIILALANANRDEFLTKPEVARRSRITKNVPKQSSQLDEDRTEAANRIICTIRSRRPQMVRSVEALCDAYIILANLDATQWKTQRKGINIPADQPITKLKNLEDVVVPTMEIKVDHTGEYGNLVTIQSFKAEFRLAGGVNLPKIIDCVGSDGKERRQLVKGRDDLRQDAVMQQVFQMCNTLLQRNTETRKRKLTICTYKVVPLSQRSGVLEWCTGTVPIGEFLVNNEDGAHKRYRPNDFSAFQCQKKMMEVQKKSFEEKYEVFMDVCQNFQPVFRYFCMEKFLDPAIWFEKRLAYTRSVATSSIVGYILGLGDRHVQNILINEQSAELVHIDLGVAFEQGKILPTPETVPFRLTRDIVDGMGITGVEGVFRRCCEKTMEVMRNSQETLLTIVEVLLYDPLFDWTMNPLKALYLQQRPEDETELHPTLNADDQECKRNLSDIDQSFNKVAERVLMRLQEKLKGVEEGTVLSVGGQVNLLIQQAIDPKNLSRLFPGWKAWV
Sequence of PI3Kδ (His-PIK3CD/PIK3R1, p110 delta/p85 alpha) (O00329 whole entry, species assumed): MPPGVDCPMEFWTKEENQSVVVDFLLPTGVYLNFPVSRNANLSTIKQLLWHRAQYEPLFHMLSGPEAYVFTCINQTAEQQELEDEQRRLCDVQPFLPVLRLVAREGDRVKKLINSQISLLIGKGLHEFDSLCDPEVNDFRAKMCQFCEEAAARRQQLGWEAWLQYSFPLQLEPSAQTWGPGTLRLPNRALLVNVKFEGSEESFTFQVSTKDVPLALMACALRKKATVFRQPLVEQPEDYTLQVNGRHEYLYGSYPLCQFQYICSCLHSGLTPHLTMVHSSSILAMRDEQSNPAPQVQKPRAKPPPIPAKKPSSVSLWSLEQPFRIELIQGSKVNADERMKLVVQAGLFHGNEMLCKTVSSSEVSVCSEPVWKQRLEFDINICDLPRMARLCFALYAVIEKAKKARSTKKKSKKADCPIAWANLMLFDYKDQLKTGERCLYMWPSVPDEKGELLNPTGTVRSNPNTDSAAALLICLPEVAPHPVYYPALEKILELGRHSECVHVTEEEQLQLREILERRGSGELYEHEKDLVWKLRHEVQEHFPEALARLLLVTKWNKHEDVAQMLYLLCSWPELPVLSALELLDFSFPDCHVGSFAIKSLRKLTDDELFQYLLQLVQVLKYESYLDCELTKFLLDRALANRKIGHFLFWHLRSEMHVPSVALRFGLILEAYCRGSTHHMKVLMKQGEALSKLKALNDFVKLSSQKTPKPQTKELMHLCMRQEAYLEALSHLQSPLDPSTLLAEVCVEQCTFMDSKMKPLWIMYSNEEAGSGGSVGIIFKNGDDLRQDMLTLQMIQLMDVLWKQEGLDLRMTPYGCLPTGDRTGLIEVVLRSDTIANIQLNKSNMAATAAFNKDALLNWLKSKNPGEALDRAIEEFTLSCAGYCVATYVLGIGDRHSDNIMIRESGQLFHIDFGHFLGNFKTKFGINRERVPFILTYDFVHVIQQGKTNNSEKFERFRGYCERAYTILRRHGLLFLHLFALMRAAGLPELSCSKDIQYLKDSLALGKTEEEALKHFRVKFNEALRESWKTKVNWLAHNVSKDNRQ
Sequence of PI3Kδ (His-PIK3CD/PIK3R1, p110 delta/p85 alpha) (P27986 whole entry partner, species assumed): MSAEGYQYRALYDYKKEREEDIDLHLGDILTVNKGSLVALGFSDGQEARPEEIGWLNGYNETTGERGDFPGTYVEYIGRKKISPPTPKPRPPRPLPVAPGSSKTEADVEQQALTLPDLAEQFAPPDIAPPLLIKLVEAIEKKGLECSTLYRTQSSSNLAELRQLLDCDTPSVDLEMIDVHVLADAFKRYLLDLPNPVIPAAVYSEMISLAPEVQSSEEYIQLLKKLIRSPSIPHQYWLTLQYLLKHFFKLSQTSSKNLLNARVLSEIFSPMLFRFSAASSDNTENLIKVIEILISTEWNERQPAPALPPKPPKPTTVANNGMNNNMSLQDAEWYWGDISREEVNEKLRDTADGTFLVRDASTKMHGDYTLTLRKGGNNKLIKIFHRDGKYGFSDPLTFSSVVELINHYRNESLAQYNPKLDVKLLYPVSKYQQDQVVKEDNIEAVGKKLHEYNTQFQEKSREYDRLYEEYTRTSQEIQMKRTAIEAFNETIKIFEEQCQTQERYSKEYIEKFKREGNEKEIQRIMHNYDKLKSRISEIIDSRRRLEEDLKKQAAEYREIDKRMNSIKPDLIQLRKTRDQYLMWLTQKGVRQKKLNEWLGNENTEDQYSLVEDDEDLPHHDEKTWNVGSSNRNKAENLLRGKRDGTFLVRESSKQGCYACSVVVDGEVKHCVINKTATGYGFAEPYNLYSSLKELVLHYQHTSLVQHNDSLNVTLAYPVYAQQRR

Structure (SMILES) | IC50 (DNA-PK; [3]) [nM] | IC50 (ATM; class symbol) [nM] | IC50 [1] [nM] | IC50 [2] [nM] | IC50 (ATM; [4]) [nM] | IC50 (DNA-PK; class symbol) [nM]
Cc1cc2c(cc1Nc1ncc3c(n1)n(C14CCC(O)(CC1)C4)c(=O)n3C)OCCO2 [Compound 5, 9-(4-hydroxybicyclo[2.2.1]heptan-1-yl)-7-methyl-2-((7-methyl-2,3-dihydrobenzo[b][1,4]dioxin-6-yl)amino)-7,9-dihydro-8H-purin-8-one] | < 1 | 10 to 100 | ≥ 1000 | 100 to 1000 |  | 
Cc1cc2c(cc1Nc1ncc3c(C)nn(C45CC(C4)C5)c3n1)OCO2 [Compound 48, 1-(bicyclo[1.1.1]pentan-1-yl)-3-methyl-N-(6-methylbenzo[d][1,3]dioxol-5-yl)-1H-pyrazolo[3,4-d]pyrimidin-6-amine] |  | 100 to 1000 | ≥ 1000 | ≥ 1000 |  | 1 to 10
Cc1cc2c(cc1Nc1ncc3c(n1)N(C14CC(F)(C1)C4)CC(=O)N3C)OCO2 [Compound 56, 8-{3-Fluorobicyclo[1.1.1]pentan-1-yl}-5-methyl-2-[(6-methyl-2H-1,3-benzodioxol-5-yl)amino]-5,6,7,8-tetrahydropteridin-6-one] |  |  | ≥ 1000 | ≥ 1000 | ≥ 1000 | 10 to 100
Cc1cc2nsnc2cc1Nc1ncc2c(C)nn(C34CC(C3)C4)c2n1 [Compound 50, N-(1-(bicyclo[1.1.1]pentan-1-yl)-3-methyl-1H-pyrazolo[3,4-d]pyrimidin-6-yl)-6-methylbenzo[c][1,2,5]thiadiazol-5-amine] | < 1 | 10 to 100 | ≥ 1000 | ≥ 1000 |  | 

Next, values leading:

IC50 (DNA-PK; [3]) [nM] | IC50 (ATM; class symbol) [nM] | IC50 [1] [nM] | IC50 [2] [nM] | IC50 (ATM; [4]) [nM] | IC50 (DNA-PK; class symbol) [nM] | Structure (SMILES)
< 1 | 100 to 1000 | ≥ 1000 | 100 to 1000 |  |  | COC12CCC(n3c(=O)n(C)c4cnc(Nc5cc6nsnc6cc5C)nc43)(C1)C2 [Compound 30, 9-(4-methoxybicyclo[2.1.1]hexan-1-yl)-7-methyl-2-((6-methylbenzo[c][1,2,5]thiadiazol-5-yl)amino)-7,9-dihydro-8H-purin-8-one]
< 1 |  | ≥ 1000 | 100 to 1000 | ≥ 1000 |  | Cc1cc2nsnc2cc1Nc1ncc2c(n1)N(C13CC(F)(C1)C3)C(=O)C21CC1 [Compound 73, 7′-(3-fluorobicyclo[1.1.1]pentan-1-yl)-2′-((6-methylbenzo[c][1,2,5]thiadiazol-5-yl)amino)spiro[cyclopropane-1,5′-pyrrolo[2,3-d]pyrimidin]-6′(7′H)-one]
 | 100 to 1000 | 100 to 1000 | ≥ 1000 |  | 1 to 10 | COC12CCC(N3CC(=O)N(C)c4cnc(Nc5cc6c(cc5C)OCO6)nc43)(CC1)C2 [Compound 63, 8-(4-methoxybicyclo[2.2.1]heptan-1-yl)-5-methyl-2-((6-methylbenzo[d][1,3]dioxol-5-yl)amino)-7,8-dihydropteridin-6(5H)-one]
< 1 | 1 to 10 | 100 to 1000 | 10 to 100 |  |  | COC12CCC(N3CC(=O)N(C)c4cnc(Nc5cc6cccnc6cc5C)nc43)(CC1)C2 [Compound 65, 8-(4-methoxybicyclo[2.2.1]heptan-1-yl)-5-methyl-2-((7-methylquinolin-6-yl)amino)-7,8-dihydropteridin-6(5H)-one]
< 1 | 100 to 1000 | 100 to 1000 | 10 to 100 |  |  | Cc1cc2nccnc2cc1Nc1ncc2c(n1)N(C13CCC(O)(CC1)C3)C(=O)C21CC1 [Compound 67, 7′-(4-hydroxybicyclo[2.2.1]heptan-1-yl)-2′-((7-methylquinoxalin-6-yl)amino)spiro[cyclopropane-1,5′-pyrrolo[2,3-d]pyrimidin]-6′(7′H)-one]
 | 10 to 100 | ≥ 1000 | ≥ 1000 |  | 1 to 10 | COCC12CC(n3c(=O)n(C)c4cnc(Nc5cc6c(cc5C)OCO6)nc43)(C1)C2 [Compound 21, 9-(3-(methoxymethyl)bicyclo[1.1.1]pentan-1-yl)-7-methyl-2-((6-methylbenzo[d][1,3]dioxol-5-yl)amino)-7,9-dihydro-8H-purin-8-one]
